Test results from the NIST ThermoML archive (doi:10.1016/j.jct.2012.05.002).
Numbers after ± are expanded uncertainties.

Assay: Boiling temperature at pressure P
Conditions: 101.3 kPa; Liquid; Closed cell (Static) method

## COC(=O)OC [dimethyl carbonate]
  Boiling temperature at pressure P: 64.69 ± 0.11 °C

## CO [methanol]
  Boiling temperature at pressure P: 90.26 ± 0.11 °C
